# From paper PMC6199744, “Development of Chemical Proteomics for the Folateome and Analysis of the Kinetoplastid Folateome” (ACS Infectious Diseases, 2018)
# “And” between values parts separate entries of the source, which are not always exact repeats. Equal values may be shown once. Read-outs that look alike come from different tables or passages of the source.
# Tested on: T. brucei lysate proteins
# Type: binding, Trypanosoma brucei
smiles,measurement,setting,value
NCCOCCOCC(=O)Nc1nc2ncc(CNc3ccc(C(=O)NC(CCC(=O)O)C(=O)O)cc3)nc2c(=O)[nH]1 (stereo not shown) [compound 6],fold change vs vehicle control,,0.88 and 0.97 and 1.1 and 0.99 and 0.76 and 1
same,fold change,"protein CZB00000046.1 HA-UBIQUITIN, vehicle control = 1",0.9
same,fold change,"protein CZT00018965.1 RETRO[…] (RHS) PROTEIN 1, vehicle control = 1",1.49
same,fold change,"protein RHS6A, vehicle control = 1",1
same,fold change vs vehicle control,"protein TB09.160.3270 ATP-DEPENDENT DEAD BOX HELICASE, PUTATIVE, vehicle control = 1",1.28
same,fold change vs vehicle control,"protein TB09.160.4200 60S ACIDIC RIBOSOMAL PROTEIN, PUTATIVE, vehicle control = 1",0.88
same,fold change vs vehicle control,"protein TB09.211.2630 60S RIBOSOMAL PROTEIN L23, PUTATIVE, vehicle control = 1",0.96
same,fold change,"protein TB09.211.4760 METACASPASE 5, PUTATIVE, vehicle control = 1",0.82
same,fold change,"protein TB11.01.1690 HY[…], CONSERVED, vehicle control = 1",1.19
same,fold change vs vehicle control,"protein TB11.01.2560 40S RIBOSOMAL PROTEIN SA, PUTATIVE, vehicle control = 1",0.94
same,fold change vs vehicle control,"protein TB11.01.3180 GUANINE NUCLEOTIDE-BINDING PROTEIN BETA SUBUNIT-LIKE PROTEIN, vehicle control = 1",0.97
same,fold change,"protein TB11.01.3560 VACUOLAR ATP SYNTHASE SUBUNIT B, PUTATIVE, vehicle control = 1",0.93
same,fold change vs vehicle control,"protein TB11.01.4370 HY[…], CONSERVED, vehicle control = 1",0.96
same,fold change,"protein TB11.01.5350 PROFILIN, vehicle control = 1",0.97
same,fold change vs vehicle control,"protein TB11.01.5910 DYNEIN IN[…] IC70, PUTATIVE, vehicle control = 1",0.99
same,fold change,"protein TB11.01.8590 RAB-LIKE 5, SMALL G PROTEIN, vehicle control = 1",0.94
same,fold change,"protein TB11.01.8740 PROTEIN PHOSPHATASE 4, PUTATIVE, vehicle control = 1",0.8
same,fold change vs vehicle control,"protein TB11.02.0730 METACASPASE, vehicle control = 1",0.84
same,fold change vs vehicle control,"protein TB11.02.1135 DYNEIN LIGHT CHAIN, PUTATIVE, vehicle control = 1",1.14
same,fold change vs vehicle control,"protein TB11.02.2040 HY[…], CONSERVED (ALBA-Domain Protein), vehicle control = 1",1.34
same,fold change vs vehicle control,"protein TB11.02.2420 HY[…], CONSERVED, vehicle control = 1",0.9
same,fold change vs vehicle control,"protein TB11.02.2510 GUANINE NUCLEOTIDE-BINDING BETA SUBUNIT-LIKE PROTEIN, vehicle control = 1",1
same,fold change vs vehicle control,"protein TB11.02.2640 DYNEIN IN[…] IC78, PUTATIVE, vehicle control = 1",0.97
same,fold change,"protein TB11.02.2960 MIT[…] PROTEIN, PUTATIVE, vehicle control = 1",0.88
same,fold change vs vehicle control,"protein TB11.03.0250 C[…], vehicle control = 1",1.45
same,fold change,"protein TB11.46.0009 HY[…], CONSERVED, vehicle control = 1",0.99
same,fold change vs vehicle control,"protein TB427TMP.01.1680 POLYUBIQUITIN, PUTATIVE, vehicle control = 1",1.25
same,fold change,"protein TB427TMP.01.1830 HY[…], CONSERVED, vehicle control = 1",0.89
same,fold change vs vehicle control,"protein TB427TMP.01.4280 HY[…], CONSERVED, vehicle control = 1",0.84
same,fold change,"protein TB427TMP.01.4750 […] 1 GAMMA, PUTATIVE, vehicle control = 1",1
same,fold change vs vehicle control,"protein TB427TMP.01.5000 HY[…], CONSERVED, vehicle control = 1",0.91
same,fold change vs vehicle control,"protein TB427TMP.01.5680 HY[…], CONSERVED, vehicle control = 1",1.21
same,fold change,"protein TB427TMP.01.5960 MIT[…] PROTEIN, PUTATIVE, vehicle control = 1",0.82
same,fold change vs vehicle control,"protein TB427TMP.01.6890 SMALL GTPASE, PUTATIVE, vehicle control = 1",1.56
same,fold change,"protein TB427TMP.01.7490 HY[…], CONSERVED, vehicle control = 1",0.97
same,fold change,"protein TB427TMP.01.8390 HY[…], CONSERVED, vehicle control = 1",0.88
same,fold change,"protein TB427TMP.02.0030 DYNEIN HEAVY CHAIN, PUTATIVE, vehicle control = 1",1
same,fold change,"protein TB427TMP.02.0760 DYNEIN HEAVY CHAIN, PUTATIVE, vehicle control = 1",0.82
same,fold change,"protein TB427TMP.02.1070 AMINOPEPTIDASE, PUTATIVE, vehicle control = 1",1.1
same,fold change,"protein TB427TMP.02.1460 HY[…], CONSERVED, vehicle control = 1",0.98
same,fold change,"protein TB427TMP.02.1860 HY[…], CONSERVED, vehicle control = 1",0.97
same,fold change vs vehicle control,"protein TB427TMP.02.2070 LONG-CHAIN-FATTY-ACID-COA LIGASE, PUTATIVE, vehicle control = 1",0.99
same,fold change vs vehicle control,"protein TB427TMP.02.2120 NUCLEOPORIN 48, vehicle control = 1",1.18
same,fold change vs vehicle control,"protein TB427TMP.02.2890 HY[…], CONSERVED, vehicle control = 1",0.94
same,fold change,"protein TB427TMP.02.4100 PRETRA[…], ALPHA SUBUNIT, PUTATIVE, vehicle control = 1",1.3
same,fold change,"protein TB427TMP.02.4550 HY[…], CONSERVED, vehicle control = 1",0.88
same,fold change,"protein TB427TMP.02.5660 HY[…], CONSERVED, vehicle control = 1",0.95
same,fold change vs vehicle control,"protein TB427TMP.02.5720 RIBONUCLEOSIDE-DIPHOSPHATE REDUCTASE LARGE CHAIN, vehicle control = 1",0.88
same,fold change,"protein TB427TMP.160.2370 HY[…], CONSERVED, vehicle control = 1",0.93
same,fold change,"protein TB427TMP.160.3630 CAMP-SPECIFIC PHOSPHODIESTERASE, vehicle control = 1",0.97
same,fold change,"protein TB427TMP.160.4240 […] PROTEIN-LIKE PROTEIN, vehicle control = 1",1.2
same,fold change vs vehicle control,"protein TB427TMP.160.4450 40S RIBOSOMAL PROTEIN S3, PUTATIVE, vehicle control = 1",1.12
same,fold change vs vehicle control,"protein TB427TMP.160.4560 ARGININE KINASE, vehicle control = 1",1.65
same,fold change vs vehicle control,"protein TB427TMP.160.4630 HY[…], CONSERVED, vehicle control = 1",0.88
same,fold change,"protein TB427TMP.160.4770 PROTEIN KINASE, PUTATIVE, vehicle control = 1",0.84
same,fold change,"protein TB427TMP.160.4910 FLAVOPROTEIN MONOOXYGENASE, PUTATIVE, vehicle control = 1",0.97
same,fold change,"protein TB427TMP.160.5670 HY[…], CONSERVED, vehicle control = 1",0.99
same,fold change,"protein TB427TMP.211.2460 HY[…], CONSERVED, vehicle control = 1",0.99
same,fold change vs vehicle control,"protein TB427TMP.211.2570 T-COMPLEX PROTEIN 1, ETA SUBUNIT, PUTATIVE, vehicle control = 1",0.91
same,fold change vs vehicle control,"protein TB427TMP.211.3140 HY[…], CONSERVED, vehicle control = 1",1.47
same,fold change vs vehicle control,"protein TB427TMP.211.3510 ATP-DEPENDENT DEAD/H RNA HELICASE, PUTATIVE, vehicle control = 1",0.88
same,fold change vs vehicle control,"protein TB427TMP.211.4170 HY[…], CONSERVED, vehicle control = 1",0.88
same,fold change,"protein TB427TMP.47.0011 HY[…], CONSERVED, vehicle control = 1",0.93
same,fold change vs vehicle control,"protein TB427TMP.55.0006 INTR[…] PROTEIN IFT88, vehicle control = 1",0.95
same,fold change vs vehicle control,"protein TB427TMP.57.0008 CALPAIN-LIKE PROTEIN, PUTATIVE, vehicle control = 1",0.97
same,fold change,"protein TB427TMP.V1.0370 HY[…], CONSERVED, vehicle control = 1",0.88
same,fold change vs vehicle control,"protein TB427.01.120 RETRO[…] SPOT (RHS) PROTEIN, PUTATIVE, vehicle control = 1",0.88
same,fold change,"protein TB427.01.2570 COATOMER BETA SUBUNIT, vehicle control = 1",0.88
same,fold change,"protein TB427.01.420 RETRO[…] SPOT (RHS) PROTEIN, PUTATIVE, vehicle control = 1",0.97
same,fold change,"protein TB427.01.5030 LEUCINE-RICH REPEAT PROTEIN (LRRP), PUTATIVE, vehicle control = 1",0.93
same,fold change vs vehicle control,"protein TB427.02.2970 MIT[…] PROTEIN, PUTATIVE, vehicle control = 1",1.21
same,fold change vs vehicle control,"protein TB427.02.6050 BETA PRIME COP PROTEIN, vehicle control = 1",1.36
same,fold change vs vehicle control,"protein TB427.03.1210 PROTEIN TRANSPORT PROTEIN SEC24, vehicle control = 1",1.1
same,fold change vs vehicle control,"protein TB427.03.3160 POLY(A) POLYMERASE, vehicle control = 1",0.47
same,fold change vs vehicle control,"protein TB427.03.4040 HY[…], CONSERVED (Ankyrinrepeat), vehicle control = 1",2.65
same,fold change vs vehicle control,"protein TB427.03.4750 AMINOPEPTIDASE, PUTATIVE, vehicle control = 1",1.1
same,fold change,"protein TB427.03.4910 SIGNAL PEPTIDE PEPTIDASE, PUTATIVE, vehicle control = 1",1.22
same,fold change,"protein TB427.04.1300 HY[…], CONSERVED, vehicle control = 1",1.2
same,fold change vs vehicle control,"protein TB427.04.1510 PHOSPHOLIPID-TRA[…], PUTATIVE, vehicle control = 1",1
same,fold change,"protein TB427.04.2340 HY[…], CONSERVED, vehicle control = 1",0.92
same,fold change,"protein TB427.04.310 HY[…], CONSERVED, vehicle control = 1",0.6
same,fold change,"protein TB427.04.420 PHOSPHATIDYLINOSITOL 3-KINASE (TOR2), vehicle control = 1",0.71
same,fold change,"protein TB427.04.450 COATOMER ALPHA SUBUNIT, PUTATIVE, vehicle control = 1",0.86
same,fold change vs vehicle control,"protein TB427.04.4870 AMINO ACID TRANSPORTER, PUTATIVE, vehicle control = 1",1.1
same,fold change,"protein TB427.04.5010 CALRETICULIN, PUTATIVE, vehicle control = 1",1.53
same,fold change vs vehicle control,"protein TB427.05.1700 R[…] A 28 KDA SUBUNIT, PUTATIVE, vehicle control = 1",1.31
same,fold change vs vehicle control,"protein TB427.05.3260 HY[…], CONSERVED, vehicle control = 1",0.88
same,fold change vs vehicle control,"protein TB427.05.4560 GUANINE DEAMINASE, PUTATIVE, vehicle control = 1",0.93
same,fold change vs vehicle control,"protein TB427.06.1070 HY[…], CONSERVED, vehicle control = 1",0.94
same,fold change vs vehicle control,"protein TB427.06.1500 ALKYL-DIHYDR[…] SYNTHASE, vehicle control = 1",0.97
same,fold change,"protein TB427.06.1800 PROTEIN PHOSPHATASE 2C, PUTATIVE, vehicle control = 1",0.92
